What all share (assay): Transient transfection (transactivation) assay in CV-1 cells, GAL4 chimera, SPAP reporter
Common to all, as to type: cell-based

One assay concerns the target T1, hPPAR γ (Homo sapiens, UniProt P37231).
T1 construct: expressed in transfected cells; host or cells: CV-1 cells
T1 sequence (P37231 238-503 limits assumed): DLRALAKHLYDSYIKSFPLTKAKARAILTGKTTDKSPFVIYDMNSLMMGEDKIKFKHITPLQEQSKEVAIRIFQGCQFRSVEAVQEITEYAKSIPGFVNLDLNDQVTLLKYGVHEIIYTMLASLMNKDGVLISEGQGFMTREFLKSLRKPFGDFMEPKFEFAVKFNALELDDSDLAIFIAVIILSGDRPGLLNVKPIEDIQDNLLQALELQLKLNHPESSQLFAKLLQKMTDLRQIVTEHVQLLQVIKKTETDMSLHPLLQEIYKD
The source says:
(§1) Compounds were screened for functional potency in transient transfection assays in CV-1 cells for their ability to activate the PPAR subtypes (transactivation assay). A previously established chimeric receptor system was utilized to allow comparison of the relative transcriptional activity of the receptor subtypes on the same target gene and to prevent endogenous receptor activation from complicating the interpretation of results. See, for example, Lehmann, J. M.; Moore, L. B.; Smith-Oliver, Oliver T. A.; Wilkison, W. O.; Willson, T. M.; Kliewer, S. A., An antidiabetic thiazolidinedione is a high affinity ligand for peroxisome proliferator-activated receptor gamma (PPAR gamma), J. Biol. Chem., 1995, 270, 12953-6. The ligand binding domains for murine and human PPAR alpha, PPAR gamma, and PPAR delta were each fused to the yeast transcription factor GAL4 DNA binding domain. CV-1 cells were transiently transfected with expression vectors for the respective PPAR chimera along with a reporter construct containing five copies of the GAL4 DNA binding site driving expression of secreted placental alkaline phosphatase (SPAP) and β-galactosidase. After 16 h, the medium was exchanged to DME medium supplemented with 10% delipidated fetal calf serum and the test compound at the appropriate concentration. After an additional 24 h, cell extracts were prepared and assayed for alkaline phosphatase and β-galactosidase activity. Alkaline phosphatase activity was corrected for transfection efficiency using the β-galactosidase activity as an internal standard (see, for example, Kliewer, S. A., et. al. Cell 83, 813-819 (1995)). Rosiglitazone (BRL 49653) was used as a positive control in the hPPAR gamma assay. The positive control in the hPPAR alpha assays was 2-(2-methyl-3-[3-{3-(4-cyclohexylamino)[6-(4-fluorophenylpiperazin-1-yl)][1,3,5]triazin-2-ylamino}propyl]phenylthio)-2-methylpropionic acid. The positive control for PPAR delta assays was 2-{2-methyl-4-[({4-methyl-2-{-{trifluoromethyl)phenyl]-1,3-thiazol-5-yl}methyl)sulfanyl]phenoxy}acetic acid.

A further assay has as its target T2, hPPAR α (Homo sapiens, UniProt Q07869).
T2 construct: expressed in transfected cells; host or cells: CV-1 cells
T2 sequence (Q07869 239-466 limits assumed): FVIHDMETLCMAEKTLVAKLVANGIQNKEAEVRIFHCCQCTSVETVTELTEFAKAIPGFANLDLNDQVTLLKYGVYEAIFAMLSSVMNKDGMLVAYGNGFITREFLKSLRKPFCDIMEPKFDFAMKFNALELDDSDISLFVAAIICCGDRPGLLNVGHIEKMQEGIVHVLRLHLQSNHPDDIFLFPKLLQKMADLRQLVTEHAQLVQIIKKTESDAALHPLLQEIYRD
Source text: as §1

Another assay addresses T3, hPPAR δ (Homo sapiens, UniProt Q03181).
T3 construct: expressed in transfected cells; host or cells: CV-1 cells
T3 sequence (Q03181 211-439 limits assumed): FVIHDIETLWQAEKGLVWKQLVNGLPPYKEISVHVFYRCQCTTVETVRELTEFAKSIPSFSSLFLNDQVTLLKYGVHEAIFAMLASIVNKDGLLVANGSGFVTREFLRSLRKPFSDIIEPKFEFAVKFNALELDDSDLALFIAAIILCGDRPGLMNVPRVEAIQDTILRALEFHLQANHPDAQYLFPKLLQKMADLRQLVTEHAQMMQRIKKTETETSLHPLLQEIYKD
Source text: as §1

For one compound, EC50 results are on record in patent US6867225B2, “Thiazole or oxazole derivatives which are useful in the treatment of cardiovascular and related diseases” (SmithKline Beecham Corporation, priority 2001, dated 2005).

As a reminder, the EC50 is the concentration needed to bring the measured effect to its halfway point. Regarding `Cc1nc(-c2ccc(C(F)(F)F)cc2)sc1C(=O)NC1CCCc2cc(OC(C)(C)C(=O)O)ccc21` (stereo not drawn) [Example 4], the figures for the EC50 at hPPAR γ, on hPPAR α and at hPPAR δ were 2220 nM, 10 nM and 8600 nM, respectively.
